Values after ≈ are worked out from the molar mass of the structure shown.
Experiments:
[1] = biological target: T1, Relaxin receptor 1 (Mus musculus, UniProt Q6R6I7); assay: Agonist activity at mouse RXFP1 stably expressed in HEK293 cells assessed as intracellular cAMP accumulation incubated for 30 mins by HTRF assay; assay type: functional, cell-based
T1 sequence (Q6R6I7 whole entry): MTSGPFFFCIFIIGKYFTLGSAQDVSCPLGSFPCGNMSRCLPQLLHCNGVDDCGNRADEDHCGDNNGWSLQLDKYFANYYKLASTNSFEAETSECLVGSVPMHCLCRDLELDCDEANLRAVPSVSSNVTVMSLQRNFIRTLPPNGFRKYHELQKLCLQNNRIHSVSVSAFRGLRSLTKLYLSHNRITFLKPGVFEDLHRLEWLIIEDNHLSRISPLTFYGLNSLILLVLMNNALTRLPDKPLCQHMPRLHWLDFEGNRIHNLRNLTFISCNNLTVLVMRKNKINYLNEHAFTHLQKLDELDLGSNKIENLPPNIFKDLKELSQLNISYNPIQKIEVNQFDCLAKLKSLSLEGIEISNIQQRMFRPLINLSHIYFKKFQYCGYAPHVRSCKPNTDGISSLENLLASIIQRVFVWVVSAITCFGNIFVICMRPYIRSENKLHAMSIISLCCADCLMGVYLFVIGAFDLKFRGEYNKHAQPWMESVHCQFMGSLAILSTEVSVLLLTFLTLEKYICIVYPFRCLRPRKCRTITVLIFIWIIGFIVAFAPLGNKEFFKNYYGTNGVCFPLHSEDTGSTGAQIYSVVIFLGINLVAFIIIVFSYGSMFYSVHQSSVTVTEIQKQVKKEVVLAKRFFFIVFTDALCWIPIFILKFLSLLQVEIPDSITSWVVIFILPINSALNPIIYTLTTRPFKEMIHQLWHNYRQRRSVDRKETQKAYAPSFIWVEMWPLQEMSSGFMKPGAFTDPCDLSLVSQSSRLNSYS

[2] = Oral bioavailability in CD-1 mouse at 10 mg/kg; assay type: ADME, organism-based; details: in vivo
[3] = Microsomal stability in human liver microsomes assessed as compound remaining measured after 30 mins; assay type: ADME, Microsome; details: read-out: Stability
[4] = Microsomal stability in rat liver microsomes assessed as compound remaining measured after 30 mins; assay type: ADME, Microsome; details: read-out: Stability
[5] = biological target: T1, Relaxin receptor 1; assay: Partial agonist activity at mouse RXFP1 expressed in HEK293 cells assessed as intracellular cAMP accumulation incubated for 30 mins by HTRF assay; assay type: functional, cell-based
[6] = Microsomal stability in mouse liver microsomes assessed as compound remaining measured after 30 mins; assay type: ADME, Microsome; details: read-out: Stability
[7] = test system: Rattus norvegicus; assay: Chronotropic effect in isoflurane-anesthetized male naive Sprague-Dawley rat model assessed as effect on heart rate at 0.5 mg/kg/min, iv measured after 60 mins; assay type: functional, organism-based
[8] = test system: Rattus norvegicus; assay: Chronotropic effect in iv dosed isoflurane-anesthetized male naive Sprague-Dawley rat model assessed as increase in heart rate measured after 60 mins; assay type: functional, organism-based; details: dose lower […], dose upper 5.0 mg/kg/min
[9] = Thermodynamic aqueous solubility of compound in phosphate buffer at pH 7.4 by reversed-phase ultrahigh pressure liquid chromatography; assay type: physicochemical; details: phosphate buffer, read-out: Therm_solubility
[10] = biological target: T2, Relaxin receptor 1 (Rattus norvegicus, UniProt Q6R6I6); assay: Agonist activity at rat RXFP1 stably expressed in HEK293 cells assessed as intracellular cAMP accumulation incubated for 30 mins by HTRF assay; assay type: cell-based
T2 sequence (Q6R6I6 whole entry): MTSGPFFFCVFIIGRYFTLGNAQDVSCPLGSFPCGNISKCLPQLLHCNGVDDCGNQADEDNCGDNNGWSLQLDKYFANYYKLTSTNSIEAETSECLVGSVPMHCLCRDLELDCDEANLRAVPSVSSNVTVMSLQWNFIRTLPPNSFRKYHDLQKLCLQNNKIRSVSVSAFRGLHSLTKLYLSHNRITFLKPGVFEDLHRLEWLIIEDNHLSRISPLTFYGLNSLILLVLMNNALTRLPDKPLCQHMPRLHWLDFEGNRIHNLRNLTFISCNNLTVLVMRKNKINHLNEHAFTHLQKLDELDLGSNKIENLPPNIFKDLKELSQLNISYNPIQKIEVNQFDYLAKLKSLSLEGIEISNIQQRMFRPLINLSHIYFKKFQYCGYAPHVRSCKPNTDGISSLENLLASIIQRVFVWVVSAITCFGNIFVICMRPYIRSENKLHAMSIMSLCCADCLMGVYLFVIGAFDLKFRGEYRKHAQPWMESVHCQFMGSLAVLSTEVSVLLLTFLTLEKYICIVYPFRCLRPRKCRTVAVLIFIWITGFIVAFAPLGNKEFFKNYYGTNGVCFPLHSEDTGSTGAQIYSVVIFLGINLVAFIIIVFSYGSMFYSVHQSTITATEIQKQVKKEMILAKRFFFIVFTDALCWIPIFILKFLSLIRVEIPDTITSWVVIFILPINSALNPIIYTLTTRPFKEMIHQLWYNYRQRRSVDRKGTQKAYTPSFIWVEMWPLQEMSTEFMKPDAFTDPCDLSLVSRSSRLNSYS

[11] = biological target: T3, Relaxin receptor 1 (Homo sapiens, UniProt Q9HBX9); assay: Agonist activity at human RXFP1
T3 sequence (Q9HBX9 whole entry): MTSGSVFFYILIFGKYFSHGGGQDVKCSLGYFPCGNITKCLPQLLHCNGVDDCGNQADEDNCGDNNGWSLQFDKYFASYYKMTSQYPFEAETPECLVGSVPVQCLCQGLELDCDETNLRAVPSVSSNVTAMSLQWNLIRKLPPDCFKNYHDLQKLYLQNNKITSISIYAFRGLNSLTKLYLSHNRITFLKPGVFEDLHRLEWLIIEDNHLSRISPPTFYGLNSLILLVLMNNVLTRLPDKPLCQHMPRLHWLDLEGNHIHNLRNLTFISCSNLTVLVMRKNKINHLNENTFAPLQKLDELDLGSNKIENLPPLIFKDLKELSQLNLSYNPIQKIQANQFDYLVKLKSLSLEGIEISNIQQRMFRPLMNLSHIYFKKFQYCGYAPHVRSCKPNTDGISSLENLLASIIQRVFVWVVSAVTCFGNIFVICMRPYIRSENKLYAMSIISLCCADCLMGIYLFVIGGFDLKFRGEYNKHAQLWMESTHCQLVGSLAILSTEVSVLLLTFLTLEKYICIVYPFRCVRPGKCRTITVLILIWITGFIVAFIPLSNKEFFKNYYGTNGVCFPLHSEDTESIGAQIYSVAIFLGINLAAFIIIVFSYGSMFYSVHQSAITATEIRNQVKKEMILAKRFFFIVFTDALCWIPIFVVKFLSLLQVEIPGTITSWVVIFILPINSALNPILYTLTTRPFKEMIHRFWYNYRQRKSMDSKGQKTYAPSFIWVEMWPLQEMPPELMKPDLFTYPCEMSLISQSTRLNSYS

| EC50 [1] | bioavailability [2] | remaining at 0.5 h [3] | remaining at 0.5 h [4] | EC50 [5] | remaining at 0.5 h [6] | Structure (SMILES) | further results |
| --- | --- | --- | --- | --- | --- | --- | --- |
| 500 nM | 36% | > 90% | > 90% | 500 nM | > 90% | COc1ccc(-c2cc(C(=O)O)ccc2F)cc1C(=O)N[C@H]1[C@@H](C(=O)Nc2ccc(F)c(C(F)(F)F)c2)[C@H]2CC[C@@H]1/C2=C\C(F)(F)F | – |
| – | – | – | – | – | – | CNC(=O)OC(C(=O)O)c1ccc(F)c(-c2ccc(OC)c(C(=O)N[C@H]3[C@@H](C(=O)Nc4ccc(F)c(C(F)(F)F)c4)[C@H]4CC[C@@H]3/C4=C\C3CC3)c2)c1 (stereo in doubt; 39) | Activity [7]: No effect; Activity [8]: Dose-dependent-effect |
| > 10000 nM | 29% | – | – | – | – | COc1ccc(-c2cncn2C)cc1C(=O)N[C@H]1[C@@H](C(=O)Nc2ccc(F)c(C(F)(F)F)c2)[C@H]2CC[C@@H]1C2=C(C)C | – |
| 580 nM | – | > 90% | > 90% | 580 nM | > 90% | COc1ccc(-c2cc(C(=O)O)ccc2F)cc1C(=O)N[C@H]1[C@@H](C(=O)Nc2ccc(F)c(C(F)(F)F)c2)[C@H]2CC[C@@H]1/C2=C\c1cnoc1 | solubility thermodynamic [9]: 15 µg/mL (≈ 22.5 µM); EC50 [10]: 880 nM |
| – | – | – | – | – | – | COc1cc(F)c(F)cc1C(=O)Nc1ccccc1C(=O)Nc1ccc(F)c(C(F)(F)F)c1 | EC50 [11]: 1200 nM |
